Test results as given in patent publication US9938335B2, “Glucagon and GLP-1 co-agonist compounds” (Eli Lilly and Company, priority 2015, dated 2018).
Several values for one entry are separate records, joined by “and”; a condition that tells them apart may be missing. Equal values may be shown once. Read-outs that look alike come from different tables or passages of the source.

Key:
hGLP-1-R = hGLP-1-R (Homo sapiens, UniProt P43220); test: Functional hGLP-1-R assay (cAMP HTRF, HEK-293 clonal cell line); format: cell-based; design: expressed in transfected cells; host or cells: HEK-293 clonal cell line over-expressing the receptor
Chain of hGLP-1-R (P43220 24-463): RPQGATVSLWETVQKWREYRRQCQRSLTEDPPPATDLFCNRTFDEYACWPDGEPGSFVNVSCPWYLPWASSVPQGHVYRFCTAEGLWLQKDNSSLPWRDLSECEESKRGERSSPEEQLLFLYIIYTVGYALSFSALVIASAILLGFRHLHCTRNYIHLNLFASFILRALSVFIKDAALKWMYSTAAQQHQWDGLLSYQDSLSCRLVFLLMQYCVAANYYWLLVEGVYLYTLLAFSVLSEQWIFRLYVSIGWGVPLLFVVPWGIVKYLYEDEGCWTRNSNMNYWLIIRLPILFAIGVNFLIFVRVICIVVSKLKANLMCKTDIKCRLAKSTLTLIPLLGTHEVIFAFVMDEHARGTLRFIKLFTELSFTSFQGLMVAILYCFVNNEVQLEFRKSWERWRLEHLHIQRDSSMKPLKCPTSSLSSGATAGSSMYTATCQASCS
Description: After a 60 minute incubation at room temperature, the resulting increase in intracellular cAMP (adenosine 3′,5′-cyclic monophosphate) is quantitatively determined using the CisBio cAMP Dynamic 2 HTRF Assay Kit (62AM4PEJ). cAMP levels within the cell are detected by adding the cAMP-d2 conjugate in cell lysis buffer (20 μl) followed by the antibody anti-cAMP-Eu^3+-Cryptate, also in cell lysis buffer (20 μl).
A relative EC50 value and percent top (Emax) are derived by non-linear regression analysis using the percent maximal response vs. the concentration of peptide added, fitted to a four-parameter logistic equation (Genedata Screener®).
Means for EC50 are expressed as Geometric means±standard error of the mean (SEM) with the number of replicates (n) indicated in parenthesis. Means for Emax are expressed as the arithmetic mean±standard error. ND signifies that agonist activity was not detected.

DIO mice (C57BL/6) = test: Effects on energy expenditure in DIO mice (indirect calorimetry); format: in vivo, mouse; conditions: for Cumulative Heat (Kcal/kg lean mass/3 day): test article 15 nmol/kg, semaglutide 60 nmol/kg sc every three days
Description: Seven to eight months old male DIO mice (C57BL/6) weighing 45-50 g are used in this study to assess the effect of compounds of the present invention on energy metabolism. Animals are individually housed in a temperature-controlled (24° C.) facility with a 12 hour light/dark cycle (lights on 22:00), and free access to food (TD95217)(Teklad) and water. After 2 weeks acclimation to the facility, mice are randomized to treatment groups (N=6/group) based on body weight so each group has similar starting mean body weight. Animals are placed in a PhenoMaster/LabMaster calorimeter (TSE Systems, Chesterfield, Mo.) for 8 days of acclimation.
Heat and […] (RER) are measured by indirect calorimetry as described using an open-circuit calorimetry system. RER is the ratio of the volume of CO2 produced (VCO2) to the volume of O2 consumed (VO2). Heat is calculated with lean body weight considered. The energy expenditure is kcal/kg/3 day and expressed as mean±SEM of 6 mice per group. Statistical significance is assessed by two-way ANOVA followed by Tukey's multiple comparison test.

[1] = Viscosity (Rheosense mVroc Viscometer); format: physicochemical; conditions: approximately 10 mg/mL peptide in 10 mM Tris + 3 mg/mL m-cresol at pH 8.0; 25° C.; shear rate 1934 s^−1
Description: Viscosity of compounds of the present invention is measured in a Rheosense mVroc Viscometer with the following settings:
(a) Syringe size: 500 μL syringe
(b) Flow Rate: 100 μL/min flow rate
(c) Average Temperature: 25° C.
(d) Shear Rate: 1934 s^−1
Dry powder (compound) is weighed out, dissolved in water as a cloudy precipitate, and titrated to approximately pH 8.0 with 1N NaOH. The solution is sonicated and swirled by hand until peptide is in solution. Samples are sterile filtered (0.22 μm PVDF filters). Samples are then analyzed by UV-Vis to assess stock solution concentrations. Solutions are diluted to final concentration using 3× m-cresol in 10 mM Tris pH 8.0 buffer to final concentrations of approximately 10 mg/mL peptide by weight in 10 mM Tris+3 mg/mL m-cresol at pH 8.0. Samples were filtered through 0.22 μm filters immediately prior to viscosity analysis. 25 μL of sample are removed to verify concentration by RP-HPLC before and after analysis.
Water and buffer control samples are measured before and after each sample is analyzed. The instrument is washed with buffer (3×) in between analysis of each sample. The samples are loaded into individual syringes and analyzed. The first measurement is not included in the final calculation to allow for equilibration with the system. Samples are then analyzed in triplicate (n=3).
The viscosity of Compounds 1-4 was measured essentially as described in this assay.

hGcg-R = hGcg-R (Homo sapiens, UniProt P47871); test: Functional activation of hGcg-R in primary human hepatocytes (cAMP); format: cell-based; design: stimulating cAMP production at the endogenous Gcg receptors; endogenous in cells; host or cells: cryopreserved primary human hepatocytes; conditions: primary human hepatocytes
Chain of hGcg-R (P47871 26-477): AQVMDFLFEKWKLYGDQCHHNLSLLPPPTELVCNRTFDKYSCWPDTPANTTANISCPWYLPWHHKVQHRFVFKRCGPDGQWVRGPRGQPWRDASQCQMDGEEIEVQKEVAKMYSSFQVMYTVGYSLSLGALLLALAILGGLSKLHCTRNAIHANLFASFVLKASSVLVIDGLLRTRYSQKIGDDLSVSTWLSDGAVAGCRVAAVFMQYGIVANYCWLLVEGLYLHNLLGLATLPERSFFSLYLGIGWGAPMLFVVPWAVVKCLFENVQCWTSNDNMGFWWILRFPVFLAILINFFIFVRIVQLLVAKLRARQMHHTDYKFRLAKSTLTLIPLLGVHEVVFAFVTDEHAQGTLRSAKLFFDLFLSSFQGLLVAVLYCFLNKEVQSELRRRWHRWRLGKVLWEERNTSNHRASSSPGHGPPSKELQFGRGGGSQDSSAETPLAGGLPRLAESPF
Description: Primary human hepatocytes are used to determine functional activity of compounds on stimulating cAMP production at the endogenous Gcg receptors. Vials of human primary hepatocytes are frozen in a liquid nitrogen tank. Upon removal, vials are thawed immediately in a water bath having a temperature of 37° C. Cell suspension is then transferred to 50 ml CHRM (Gibco/Life Technologies cat#CM7000 Cryopreserved Hepatocyte Recovery Medium).
The cell suspension is centrifuged at 1,000×g for 10 min. Cell pellets are resuspended in 5 ml of Plating Media after removing the CHRM by aspiration. The Plating Media is prepared by adding entire contents of CM3000 Supplement Packs to 500 ml Williams Media (Gibco/Life Technologies), followed by sterile filtration through a 0.22 μm membrane.
The cell density is counted on hemocytometer, by adding 100 μl of cell suspension to 100 μl Trypan Blue (HyClone Trypan Blue 0.04%, catalog number SV30084.01). The cell suspension is further diluted in the Plating Media to the final cell density of 0.8×10^6 cells per ml. […] 65 ml of the cell suspension is then added to each well of the Collagen coated 96-well plate to final cell density 50,000 cells per well. The cell plate is incubated in a 37° C., 5% CO2 incubator for 3-4 hours.
After 3-4 hours incubation, the media is aspirated and replaced with 100 ml Maintenance Media. The maintenance media is prepared by adding entire contents of CM4000 Supplement Packs to 500 ml Williams Media (Gibco/Life Technologies), followed by sterile filtration through a 0.22 μm membrane. The cell plate is returned to the 37° C., 5% CO2 incubator overnight in preparation for the cAMP assay.
The cell plate is removed from the incubator and the media is removed by gentle aspiration without disturbing the cell monolayer.
cAMP concentration is measured using a HTRF cAMP assay kit (Cisbio): cAMP-d2 conjugate in cell lysis buffer (40 μl) followed by the antibody anti-cAMP-Eu^3+-Cryptate, also in cell lysis buffer (40 μl), is added to the cells of the plate.

[2] = Pharmacokinetics in cynomolgus monkeys; format: in vivo; conditions: for Cmax: read-out: C0 or Cmax
Description: The compounds are administered by a single intravenous or subcutaneous dose of 50 nmole/kg or 250 nmole/kg.
The plasma concentrations of compounds are determined by a LC/MS method. Briefly, a compound of the present invention is extracted from 100% monkey plasma (25 μl) using acetonitrile. Two distinct layers are formed upon centrifugation with the compound located in the liquid layer. An 80 μl aliquot of the supernatant was transferred to a 96-well plate, diluted with 150 μl of water and 25 μl of formic acid. The diluted sample (10 μl) was injected onto a Supelco Analytical Discovery BIO Wide Pore C5-3, 5 cm×1 mm, 3 um column. The column effluent is directed into a Thermo Q-Exactive mass spectrometer for detection and quantitation.

rat GLP-1-R = target: T1, rat GLP-1-R (Rattus norvegicus, UniProt P32301); test: Functional activation of the rat GLP-1-R in insulinoma cell line INS1 832-3 (cAMP); format: cell-based
T1 construct: stimulating cAMP production at the endogenous GLP-1 receptors; endogenous in cells; host or cells: INS1 832-3 rat insulinoma cells
T1 sequence (P32301 22-463): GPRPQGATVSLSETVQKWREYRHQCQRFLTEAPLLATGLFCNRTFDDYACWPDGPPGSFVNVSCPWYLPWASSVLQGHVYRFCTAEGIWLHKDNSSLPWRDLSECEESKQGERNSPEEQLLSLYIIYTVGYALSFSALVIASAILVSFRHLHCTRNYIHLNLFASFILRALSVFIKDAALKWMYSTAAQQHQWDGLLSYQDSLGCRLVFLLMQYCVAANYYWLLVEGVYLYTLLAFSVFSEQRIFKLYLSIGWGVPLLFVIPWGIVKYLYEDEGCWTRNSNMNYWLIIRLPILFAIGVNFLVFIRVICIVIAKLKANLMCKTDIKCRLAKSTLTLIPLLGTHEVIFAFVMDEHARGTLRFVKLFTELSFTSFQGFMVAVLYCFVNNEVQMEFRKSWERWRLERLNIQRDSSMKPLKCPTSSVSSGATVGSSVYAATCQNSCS
Description: Performance of the assay requires detachment of the cells from culture flasks using Enzyme Free Cell Stripper and pelleted by centrifugation at 1000 rpm for 5 minutes at room temperature. […] After 2 hours starvation, cells are treated with compound by adding 10 μl of 5× compound dilutions into the cell plates (n=2) and incubated in a 37° C., 5% CO2 incubator for 30 minutes.
cAMP concentration is measured using a HTRF cAMP assay kit (Cisbio): cAMP-d2 conjugate in cell lysis buffer (20 μl) followed by the antibody anti-cAMP-Eu^3+-Cryptate, also in cell lysis buffer (20 μl), is added to the cells of the plate.
The assay is performed with duplicated plates.

[3] = Table 9: single IV 50 nmol/kg, individual animals
[4] = Table 9: single SC 50 nmol/kg, individual animals
[5] = Table 9: single SC 250 nmol/kg, individual animals
[6] = male, cynomolgus monkey, plasma, iv, 50 nmol/kg, Table 9: single IV 50 nmol/kg, mean
[7] = male, cynomolgus monkey, plasma, sc, 50 nmol/kg, Table 9: single SC 50 nmol/kg, individual animals
[8] = male, cynomolgus monkey, plasma, sc, 50 nmol/kg, Table 9: single SC 50 nmol/kg, mean
[9] = male, cynomolgus monkey, plasma, sc, 250 nmol/kg, Table 9: single SC 250 nmol/kg, individual animals
[10] = male, cynomolgus monkey, plasma, sc, 250 nmol/kg, Table 9: single SC 250 nmol/kg, mean

## CC(C)C[C@H](NC(=O)[C@H](CC(C)C)NC(=O)[C@H](Cc1c[nH]c2ccccc12)NC(=O)[C@H](CCC(=O)O)NC(=O)[C@@H](NC(=O)[C@H](Cc1ccccc1)NC(=O)[C@H](CCC(=O)O)NC(=O)[C@H](CCCCNC(=O)COCCOCCNC(=O)COCCOCCNC(=O)CC[C@H](NC(=O)CCCCCCCCCCCCCCCCCCC(=O)O)C(=O)O)NC(=O)[C@H](C)NC(=O)[C@H](CCCCN)NC(=O)[C@H](CCCCN)NC(=O)[C@H](CCC(=O)O)NC(=O)[C@H](CC(=O)O)NC(=O)[C@H](CC(C)C)NC(=O)[C@H](Cc1ccc(O)cc1)NC(=O)[C@H](CCCCN)NC(=O)[C@H](CO)NC(=O)[C@H](Cc1ccc(O)cc1)NC(=O)[C@H](CC(=O)O)NC(=O)[C@H](CO)NC(=O)[C@@H](NC(=O)[C@H](Cc1ccccc1)NC(=O)[C@@H](NC(=O)CNC(=O)[C@H](CCC(N)=O)NC(=O)C(C)(C)NC(=O)[C@@H](N)Cc1c[nH]cn1)[C@@H](C)O)[C@@H](C)O)C(C)C)C(=O)N[C@@H](CCC(=O)O)C(=O)NCC(=O)NCC(=O)N1CCC[C@H]1C(=O)N[C@@H](CO)C(=O)N[C@@H](CO)C(=O)NCC(N)=O [Compound 2]
hGLP-1-R; HEK293
  Emax: 107 ± 7%
hGLP-1-R; cAMP, 60 minute incubation, 0.25% FBS, 0.05% BSA, geometric mean, read-out: Human GLP-1-R EC50, nM ± SEM (n)
  EC50: 83.1 ± 16.8 nM
DIO mice (C57BL/6); DIO mice, chronic treatment
  metabolic rate: increased their metabolic rate starting from Week 2
DIO mice (C57BL/6); Day 1 to Day 4
  Cumulative Heat (Kcal/kg lean mass/3 day): 1746 ± 96 Kcal/kg lean mass/3 day
DIO mice (C57BL/6); Day 4 to Day 7
  Cumulative Heat (Kcal/kg lean mass/3 day): 1778 ± 132 Kcal/kg lean mass/3 day
DIO mice (C57BL/6); Day 7 to Day 10
  Cumulative Heat (Kcal/kg lean mass/3 day): 2549 ± 129 Kcal/kg lean mass/3 day
DIO mice (C57BL/6); Day 10 to Day 13
  Cumulative Heat (Kcal/kg lean mass/3 day): 2568 ± 147 Kcal/kg lean mass/3 day
[1]
  500 μL syringe Viscosity: 1.04 cP or mPa-s
hGcg-R; cAMP, 1 hour
  EC50: 159 nM
hGcg-R; data not shown
  cAMP production: increased cAMP production in a dose-dependent manner
[2]; [3]
  AUC(0-inf): 93.174 µM·h
  CL/F: 12.7 mL/day/kg and 13 mL/day/kg
  Cmax: 1100 nM
[2]; Table 9: single IV 50 nmol/kg, male cynomolgus monkeys, individual animals
  T1/2: 131 h
[2]; Table 9: single IV 50 nmol/kg, mean
  CL/F: 12.7 mL/day/kg
[2]; [4]
  AUC(0-inf): 82.792 µM·h
  CL/F: 14.4 mL/day/kg
  T1/2: 106 h
  Cmax: 452 nM
[2]; [5]
  AUC(0-inf): 540.175 µM·h
  CL/F: 11 mL/day/kg
  T1/2: 104 h
  Cmax: 3620 nM
[2]; cynomolgus monkey, plasma, sc, 250 nmol/kg, Table 9: single SC 250 nmol/kg, mean, read-out: AUC0-inf
  AUC(0-inf): 485 µM·h
[2]; cynomolgus monkey, plasma, sc, 250 nmol/kg, Table 9: single SC 250 nmol/kg, mean, read-out: CL/F (converted)
  CL/F: 12.5 mL/day/kg
[2]; male, cynomolgus monkey, plasma, iv, 50 nmol/kg, Table 9: single IV 50 nmol/kg, individual animals, read-out: AUC0-inf
  AUC(0-inf): 94.8 µM·h
[2]; male, cynomolgus monkey, plasma, iv, 50 nmol/kg, Table 9: single IV 50 nmol/kg, individual animals
  Cmax: 1020 nM
[2]; male, cynomolgus monkey, plasma, iv, 50 nmol/kg, Table 9: single IV 50 nmol/kg, male cynomolgus monkeys, individual animals
  half-life: 88 h
[2]; [6]
  half-life: 110 h
  Cmax: 1060 nM
[2]; male, cynomolgus monkey, plasma, iv, 50 nmol/kg, Table 9: single IV 50 nmol/kg, mean, read-out: AUC0-inf
  AUC(0-inf): 94 µM·h
[2]; [7]
  Tmax: 24 h
  half-life: 137 h
  Cmax: 474 nM
[2]; male, cynomolgus monkey, plasma, sc, 50 nmol/kg, Table 9: single SC 50 nmol/kg, individual animals, read-out: AUC0-inf
  AUC(0-inf): 101 µM·h
[2]; male, cynomolgus monkey, plasma, sc, 50 nmol/kg, Table 9: single SC 50 nmol/kg, individual animals, read-out: CL/F (converted)
  CL/F: 12 mL/day/kg
[2]; [8]
  Tmax: ~24 h
  half-life: 122 h
  Cmax: 463 nM
[2]; male, cynomolgus monkey, plasma, sc, 50 nmol/kg, Table 9: single SC 50 nmol/kg, mean, read-out: AUC0-inf
  AUC(0-inf): 91.9 µM·h
[2]; male, cynomolgus monkey, plasma, sc, 50 nmol/kg, Table 9: single SC 50 nmol/kg, mean, read-out: CL/F (converted)
  CL/F: 13.2 mL/day/kg
[2]; [9]
  Tmax: 12 h
  half-life: 115 h
  Cmax: 3640 nM
[2]; male, cynomolgus monkey, plasma, sc, 250 nmol/kg, Table 9: single SC 250 nmol/kg, individual animals, read-out: AUC0-inf
  AUC(0-inf): 430 µM·h
[2]; male, cynomolgus monkey, plasma, sc, 250 nmol/kg, Table 9: single SC 250 nmol/kg, individual animals, read-out: CL/F (converted)
  CL/F: 13.9 mL/day/kg
[2]; [10]
  Tmax: 12 h
  half-life: 110 h
  Cmax: 3630 nM
Rat GLP-1-R; INS1 832-3 cells, cAMP, 30 minutes
  EC50: 62 nM
Rat GLP-1-R; INS1 832-3 cells, data not shown
  cAMP production: increased cAMP production in a dose-dependent manner
Rat GLP-1-R; INS1, percent of maximal response with native GLP-1 peptide at 300 nM
  Emax: 104%
